Here are results for six molecules from paper PMC8002823, “Synthesis and Structure–Activity Relationships of Aristoyagonine Derivatives as Brd4 Bromodomain Inhibitors with X-ray Co-Crystal Research” (Molecules, 2021).

Molecules are shown by their SMILES.

A word on the melting point: it is the temperature of the solid-liquid transition. The term CC50 denotes the concentration at which the toxic effect on the cells reaches its halfway point. By IC50 is commonly meant the concentration that gives 50% inhibition.

Data set [1] can be described thus: Cell cytotoxic assay in Ty82 cells. The class given is cell-based. Particulars: human, Ty82 cells; Ty82 cell cytotoxic activity, 72 h. On the procedure: (§1) For the viability experiments, Ty82 cells were seeded in 96-well plates at 30% confluency and exposed to chemicals the next day. After 72 h, WST-1 reagent was added, and absorbance at 450 nm was measured by using a Spectramax spectrophotometer (Molecular Devices, San Jose, CA, USA) in accordance with the manufacturer’s instructions. The CC50 values were calculated by using GraphPad Prism version 5 for Windows. The curves were fitted using a nonlinear regression model with a log (inhibitor) versus response formula.

The target of data set [2] is T1, Brd4 bromodomain (Homo sapiens, UniProt O60885).
T1 construct: glutathione-S-transferase (GST) and His-tagged bromodomain; made in house
The data set can be described thus: Alpha-screen enzyme assay (bromodomain binding to acetylated histone peptide).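 As to all read-outs here: AlphaScreen proximity readout pairing streptavidin donor beads with anti-GST acceptor beads, with hits checked against bead interference using a TruHit control kit.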 Particulars: for IC50: inhibition of bromodomain binding activity, calculated with Prism6.
Method: Bromodomain was prepared as previously described. […] Streptavidin-coated donor beads and anti-GST alpha-screen acceptor beads were added under low-light condition. […] The alpha-screen results were confirmed by using alpha-screen TruHit kits (PerkinElmer, USA).

For data set [3], the system named is Brd4 bromodomain. The arrangement: method as in PMID 29928885. Particulars: cited from earlier work.
The next data set has as its system Ty82 cells. Put plainly: Cell cytotoxic assay in Ty82 cells. Particulars: Homo sapiens; Ty82 cell cytotoxic activity, 72 h. The class given is cell-based. On the procedure: as §1
In the next data set the test system is c-MYC. Put plainly: Western blot of c-MYC level in NALM6 cells. In kind it is cell-based. Particulars: 18 h treatment. On the procedure: For immunoblotting, cells were washed in PBS, lysed in 1× sample buffer (50 mmol/L Tris-HCl (pH 6.8), 10% glycerol, 2% SDS, and 3% β-mercaptoethanol), and boiled for 10 min. Lysates were subjected to SDS-PAGE followed by blotting with the indicated antibodies and detection by western blotting substrate ECL reagent (Thermo Fisher Scientific, Waltham, MA, USA). Images were produced using a SensiQ-2000 (Lugen Sci Co., Seoul, KOREA). The following antibodies were obtained from Cell Signaling Technology (Danvers, MA, USA): c-Myc (catalog no. 5605). Tubulin antibody (catalog no. T6199) was purchased from Sigma-Aldrich. HRP-conjugated anti-mouse (catalog no. NCI1430KR), and HRP-conjugated anti-rabbit (catalog no. NCI1460KR) antibodies were obtained from Thermo Scientific.
A general note: In western blotting, separated proteins are transferred to a membrane and probed.

As to `CCN(CC)c1ccc2c3c1Oc1ccc(OCC(C)C)cc1C=C3N(C)C2=O` [Compound 8ca], the melting point fell in the range of 183 to 185 °C. In data set [1], this molecule displayed a CC50 at 72 h of over 20 µM. In addition, at Brd4 bromodomain [2] (alpha-screen assay), the “inhibitory activity against Brd4 bromodomain (in words)” value is “no inhibitory activity” and the IC50 was over 32 µM.

Regarding `COc1ccc2c(c1OC)Oc1c(OC)ccc3c1C(=C2)N(C)C3=O` [aristoyagonine], the “inhibition of binding of Brd4 bromodomain to acetylated histone peptide (in words)” value in the data set on Brd4 bromodomain [3] was “efficiently inhibited”.

`CCOc1ccc2c3c1Oc1ccc(OC)cc1C=C3N(C)C2=O` [Compound 8bk, 5-Ethoxy-9-methoxy-1-methylbenzo[6,7]oxepino[4,3,2-cd]isoindol-2(1H)-one] gave a melting point of 214 to 216 °C. This molecule also displayed a CC50 in the data set on Ty82 cells of 0.49 µM. Besides, on Brd4 bromodomain [2] (alpha-screen assay), the IC50 is 0.86 µM. For the same molecule, the c-MYC level result in the data set on c-MYC is given as “significantly decreased”.

Consider `COc1ccc2c(c1)C=C1c3c(ccc(OC)c3O2)C(=O)N1C` [Compound 8bc, 5,9-Dimethoxy-1-methylbenzo[6,7]oxepino[4,3,2-cd]isoindol-2(1H)-one], for which the melting point fell in the range of 194 to 196 °C. The CC50 in the data set with Ty82 cells turned out to be 0.66 µM. Also, the “increase in activity compared with 8ba” value on Brd4 bromodomain [2] (Brd4 IC50 ratio) came to 40 fold. Moreover, the IC50 on Brd4 bromodomain [2] (alpha-screen assay) is 0.41 µM. Moreover, the c-MYC level entry in the data set with c-MYC was “significantly decreased”.

`CCOc1ccc2c3c1Oc1ccc(OCc4ccccn4)cc1C=C3N(C)C2=O` [Compound 8bn, 5-Ethoxy-1-methyl-9-(pyridine-2-ylmethoxy)benzo[6,7]oxepino[4,3,2-cd]isoindol-2(1H)-one]: the melting point was 188 to 190 °C. The same molecule had a CC50 in the data set on Ty82 cells of 0.36 µM. Further, the IC50 at Brd4 bromodomain [2] (alpha-screen assay) is 0.68 µM.

`COc1ccc2c3c1Oc1ccc(OCc4ccccn4)cc1C=C3N(C)C2=O` [Compound 8bf, 5-Methoxy-1-methyl-9-(pyridine-2-ylmethoxy)benzo[6,7]oxepino[4,3,2-cd]isoindol-2(1H)-one]: the melting point lay within 176 to 178 °C. In the data set with Ty82 cells, the CC50 came out at 0.23 µM. In addition, on Brd4 bromodomain [2] (alpha-screen assay), the IC50 is 0.91 µM.
